Source: US20260207388A1, “WOUND DRESSING” (ConvaTec Limited, priority 2023, published 2026)

Assays:
Conditions in all cases: EDTA at concentrations of 0.1-40 wt. % by volume
Pseudomonas aeruginosa = tested on: Pseudomonas aeruginosa
Serratia marcescens = tested on: Serratia marcescens
[1] = tested on: methicillin resistant Staphylococcus aureus (MRSA)
[2] = tested on: vancomycin resistant Enterococcus (VRE)

Measured: killing of microorganisms in the planktonic and biofilm state

O=C(O)CN(CCN(CC(=O)O)CC(=O)O)CC(=O)O [EDTA, ethylenediaminetetra-acetic acid]
effectively killed: all assays above
